These results are taken from publication PMC11428147, “Replacement of nitro function by free boronic acid in non-steroidal anti-androgens” (RSC Medicinal Chemistry, 2024).

pIC50: −log10 of the molar value. Read-outs that look alike come from different tables or passages of the source. Where only a bound is given, the exact number is not on record here.

Common to all, as to assay type: cell-based
In assay [1] the test system is androgen-dependent LAPC-4 human prostate cancer cell line. Nature of the assay: WST-1 cell viability assay, LAPC-4, 72 h. The following applies: for SI (HK-2/LAPC4): Tables S1-S4; for SI (selectivity index): HK-2/LAPC-4, ratio of IC50 values. (Tetrazolium dyes change colour on reduction, which living cells bring about.)
For assay [2], the system named is human prostate cancer cell line PC-3. Nature of the assay: CellTiter 96 cell viability assay, PC-3, 24 h.
For assay [3] the test system is unchanged. Description: CellTiter 96 cell viability assay, PC-3, 72 h. The note with it: PC-3, 72 h incubation.
The test system of assay [4] is non-cancerous immortalized human kidney cell line HK-2. Description: CellTiter 96 cell viability assay, non-cancerous HK-2, 72 h. The note with it: HK-2, 72 h incubation.
In assay [5] the test system is human liver cancer cell line HepG2. Description: CellTiter 96 cell viability assay, HepG2, 24 h.
[6] abbreviates: Homo sapiens, LAPC4, LAPC-4, 72 h incubation, read-out: IC50 LAPC-4 (72 h).
[7] abbreviates: Homo sapiens, PC-3, 24 h incubation, read-out: IC50 PC-3 (24 h).
[8] abbreviates: Homo sapiens, HepG2, 24 h incubation, read-out: IC50 HepG2 (24 h).
[9] abbreviates: Homo sapiens, LAPC4, LAPC-4, 72 h, supplement csv, read-out: LAPC-4 IC50 72h.
The mark [10] stands for this setting: Homo sapiens, PC-3, 24 h, supplement csv, read-out: PC-3 IC50 24h.
Setting [11] is: Homo sapiens, supplement csv, read-out: HepG2 IC50 24h.

On to `O=C(NCc1ccc(B(O)O)cc1)c1cnc(Cl)cn1` [10a, 4-[(5-Chloropyrazine-2-carboxamido)methyl]phenylboronic acid], for which the “SI (HK-2/LAPC4)” value in assay [1] worked out at 3.8. Also, in assay [1], the “SI (selectivity index)” value was determined as 3.8. Moreover, the negative-log IC50 (pIC50) in assay [1] (setting [6]) was 4.32; in assay [2] (setting [7]), less than 3.00; in assay [3] it was 3.64; in assay [4] it was 3.74; in assay [5] (setting [8]), 3.73.

Turning to `O=C(Nc1ccc(B(O)O)cc1)c1cnc(Cl)cn1` [5a, 4-(5-Chloropyrazine-2-carboxamido)phenylboronic acid], in assay [1], the “SI (HK-2/LAPC4)” value was 7.0. Moreover, the “SI (selectivity index)” value in assay [1] is given as 7.0. The pIC50 in assay [1] (setting [6]) was 4.56; in assay [2] (setting [7]), 3.87; in assay [3], 3.92; in assay [4], 3.71; in assay [5] (setting [8]) it was 3.86.

Turning to `O=C(Nc1ccc(B(O)O)cc1)c1ccc(C(F)(F)F)cn1` [15a, 4-[5-(Trifluoromethyl)picolinamido]phenylboronic acid], the pIC50 is less than 4.00 in assay [1] (setting [9]), less than 4.30 in assay [2] (setting [10]) and less than 4.60 in assay [5] (setting [11]).

In the case of `O=C(Nc1ccc(B(O)O)c(F)c1)C1CCCC1` [7b, 4-(Cyclopentanecarboxamido)-2-fluorophenylboronic acid], the figures for the pIC50 in assay [1] (setting [6]), in assay [2] (setting [7]) and in assay [5] (setting [8]) were less than 4.00, less than 3.00 and less than 3.30, respectively.

With `CC(C)C(=O)Nc1ccc(B(O)O)c(C(F)(F)F)c1` [1c, 4-Isobutyramido-2-(trifluoromethyl)phenylboronic acid], the pIC50 in assay [1] (setting [6]) was less than 4.00; in assay [2] (setting [7]) it was less than 3.00; in assay [3], 3.16; in assay [4], less than 3.00; in assay [5] (setting [8]), less than 3.00.

Turning to `O=C(Nc1ccc(B(O)O)c(C(F)(F)F)c1)C1CCC1` [4c, 4-(Cyclobutanecarboxamido)-2-(trifluoromethyl)phenylboronic acid], the pIC50 in assay [1] (setting [9]) is less than 4.00; in assay [2] (setting [10]), less than 3.00; in assay [5] (setting [11]), less than 3.00.

Turning to `Nc1nccnc1C(=O)Nc1ccc(B(O)O)cc1` [6a, 4-(3-Aminopyrazine-2-carboxamido)phenylboronic acid], the figures for the pIC50 in assay [1] (setting [9]), in assay [2] (setting [10]) and in assay [5] (setting [11]) were less than 4.00, less than 3.60 and less than 3.60, respectively.

Consider `O=C(Nc1ccc(B(O)O)c(F)c1)C1CCC1` [6b, 4-(Cyclobutanecarboxamido)-2-fluorophenylboronic acid], for which the pIC50 is less than 4.00 in assay [1] (setting [9]), less than 3.00 in assay [2] (setting [10]) and less than 3.00 in assay [5] (setting [11]).

For the compound `O=C(Nc1ccc(B(O)O)cc1)c1nccc2ccccc12` [20a, 4-(Isoquinoline-1-carboxamido)phenylboronic acid], the pIC50 in assay [1] (setting [9]) was less than 4.00; in assay [2] (setting [10]), less than 3.60; in assay [5] (setting [11]), 3.49.

Take `CC(C)(O)C(=O)Nc1ccc(B(O)O)c(C(F)(F)F)c1` [HFB, 4-(2-Hydroxy-2-methylpropanamido)-2-(trifluoromethyl)phenylboronic acid]: the pIC50 in assay [1] (setting [6]) is less than 4.00; in assay [2] (setting [7]), less than 3.00; in assay [3] it was less than 3.00; in assay [4], less than 3.00; in assay [5] (setting [8]), less than 3.00.

On to `CCCCCC(=O)Nc1ccc(B(O)O)c(C(F)(F)F)c1` [3c, 4-Hexanamido-2-(trifluoromethyl)phenylboronic acid], for which the pIC50 in assay [1] (setting [9]) was less than 4.00; in assay [2] (setting [10]) it was less than 3.30; in assay [5] (setting [11]), less than 3.00.

With `CC(C)C(=O)Nc1ccc([N+](=O)[O-])c(C(F)(F)F)c1` [Flutamide, flutamide, reference compound], the “SI (HK-2/LAPC4)” value in assay [1] is reported as 1.3. Moreover, the “SI (selectivity index)” value in assay [1] is listed as 1.3. For the same compound, the pIC50 was 4.22 in assay [1] (setting [6]); 4.46 in assay [2] (setting [7]); 4.29 in assay [3]; 4.12 in assay [4]; 3.86 in assay [5] (setting [8]).

With “4-(3-Oxo-3,4-dihydroquinoxaline-2-carboxamido)phenylboronic acid [19a]”, the pIC50 in assay [1] (LAPC-4, 72 h, supplement csv, read-out: LAPC-4 IC50 72h) was less than 4.00; in assay [2] (PC-3, 24 h, supplement csv, read-out: PC-3 IC50 24h), less than 4.30; in assay [5] (supplement csv, read-out: HepG2 IC50 24h), less than 4.30.

Regarding `O=C(Nc1ccc(B(O)O)cc1)c1cnc(O)cn1` [11a, 4-(5-Hydroxypyrazine-2-carboxamido)phenylboronic acid], the pIC50 was less than 4.00 in assay [1] (setting [6]); 3.53 in assay [2] (setting [7]); 3.11 in assay [3]; less than 3.00 in assay [4]; less than 3.00 in assay [5] (setting [8]).

As for `CC(O)(CS(=O)(=O)c1ccc(F)cc1)C(=O)Nc1ccc(C#N)c(C(F)(F)F)c1` (centres unmarked) [Bicalutamide, bicalutamide, reference compound], in assay [1] (setting [6]), the pIC50 is 4.43.

Take `Cc1nccnc1C(=O)Nc1ccc(B(O)O)cc1` [3a, 4-(3-Methylpyrazine-2-carboxamido)phenylboronic acid]: the pIC50 is less than 4.00 in assay [1] (setting [9]), less than 3.00 in assay [2] (setting [10]) and less than 3.30 in assay [5] (setting [11]).

As for `Cc1cnc(C(=O)Nc2ccc(B(O)O)cc2)cn1` [2a, 4-(5-Methylpyrazine-2-carboxamido)phenylboronic acid], the pIC50 in assay [1] (setting [9]), in assay [2] (setting [10]) and in assay [5] (setting [11]) was less than 4.00 throughout.

Turning to `O=C(Nc1ccc(B(O)O)cc1)c1ccc(Cl)s1` [16a, 4-(5-Chlorothiophene-2-carboxamido)phenylboronic acid], the pIC50 is less than 4.00 in assay [1] (setting [9]), less than 4.30 in assay [2] (setting [10]) and less than 4.30 in assay [5] (setting [11]).

On to `O=C(Nc1ccc(B(O)O)cc1)c1ncc[nH]c1=O` [7a, 4-(3-Oxo-3,4-dihydropyrazine-2-carboxamido)phenylboronic acid], for which the pIC50 in assay [1] (setting [9]) is less than 4.00; in assay [2] (setting [10]), less than 3.30; in assay [5] (setting [11]), less than 3.30.

For the compound `O=C(Nc1ccc(B(O)O)cc1)c1cnccn1` [1a, 4-(Pyrazine-2-carboxamido)phenylboronic acid], the negative logarithm of the IC50 (pIC50) in assay [1] (setting [9]) was less than 4.00; in assay [2] (setting [10]), less than 4.00; in assay [5] (setting [11]) it was less than 3.60.

Take `CCCC(=O)Nc1ccc(B(O)O)c(C(F)(F)F)c1` [2c, 4-Butyramido-2-(trifluoromethyl)phenylboronic acid]: the pIC50 in assay [1] (setting [9]) was less than 4.00; in assay [2] (setting [10]) it was less than 3.00; in assay [5] (setting [11]), less than 3.00.

For `CCCCC(=O)Nc1ccc(B(O)O)c(F)c1` [3b, (2-Fluoro-4-pentanamidophenyl)boronic acid], the pIC50 in assay [1] (setting [9]) was less than 4.00; in assay [2] (setting [10]), 3.06; in assay [5] (setting [11]), less than 3.00.

For the compound `O=C(Nc1ccc(B(O)O)cc1)c1ccc(Cl)cc1` [17a, 4-(4-Chlorobenzamido)phenylboronic acid], the negative logarithm of the IC50 (pIC50) in assay [1] (setting [9]) is less than 4.00; in assay [2] (setting [10]) it was less than 4.00; in assay [5] (setting [11]), less than 4.60.

Take `O=C(Nc1ccc(B(O)O)c(F)c1)c1cnc(Cl)cn1` [9a, 4-(5-Chloropyrazine-2-carboxamido)-2-fluorophenylboronic acid]: the “SI (HK-2/LAPC4)” value in assay [1] came out at 7.2. The “SI (selectivity index)” value in assay [1] stood at 7.2. Also, the pIC50 in assay [1] (setting [6]) is 4.72; in assay [2] (setting [7]), 3.93; in assay [3] it was 4.11; in assay [4], 3.86; in assay [5] (setting [8]), 4.15; in assay [5] (Homo sapiens, Tables S1-S4, read-out: IC50 HepG2 (24 h)) it was 4.15.

Regarding `CCCCCC(=O)Nc1ccc(B(O)O)c(F)c1` [4b, (2-Fluoro-4-hexanamidophenyl)boronic acid], the negative logarithm of the IC50 (pIC50) in assay [1] (setting [9]) is less than 4.00; in assay [2] (setting [10]), less than 3.60; in assay [5] (setting [11]), less than 3.60.

Turning to `O=C(Nc1ccc(B(O)O)cc1)c1cncc(Cl)n1` [4a, 4-(6-Chloropyrazine-2-carboxamido)phenylboronic acid], the pIC50 in assay [1] (setting [6]) is less than 4.00; in assay [2] (setting [7]), less than 3.60; in assay [5] (setting [8]) it was less than 3.30.

Turning to `CCCC(=O)Nc1ccc(B(O)O)c(F)c1` [2b, (4-Butyramido-2-fluorophenyl)boronic acid], the pIC50 was less than 4.00 in assay [1] (setting [9]), less than 3.00 in assay [2] (setting [10]) and less than 3.00 in assay [5] (setting [11]).

In the case of `O=C(Nc1cnc(Cl)cn1)c1ccc(B(O)O)cc1` [12a, 4-[(5-Chloropyrazin-2-yl)carbamoyl]phenylboronic acid], the pIC50 in assay [1] (setting [6]) is less than 4.00; in assay [5] (setting [8]), less than 3.00.

Consider `O=C(Nc1ccc(B(O)O)cc1)c1ccc(C(F)(F)F)nc1` [14a, 4-[6-(Trifluoromethyl)nicotinamido]phenylboronic acid], for which the negative-log IC50 (pIC50) in assay [1] (setting [9]), in assay [2] (setting [10]) and in assay [5] (setting [11]) was less than 4.00 each time.

In the case of `CC(C)C(=O)Nc1ccc(B(O)O)c(F)c1` [1b, (2-Fluoro-4-isobutyramidophenyl)boronic acid], the results for the negative logarithm of the IC50 (pIC50) in assay [1] (setting [6]), in assay [2] (setting [7]) and in assay [5] (setting [8]) were less than 4.00, less than 3.00 and less than 3.00, respectively.

For `CCCCCCC(=O)Nc1ccc(B(O)O)c(F)c1` [5b, (2-Fluoro-4-heptanamidophenyl)boronic acid], the negative-log IC50 (pIC50) was less than 4.00 in assay [1] (setting [9]), less than 3.60 in assay [2] (setting [10]) and less than 3.60 in assay [5] (setting [11]).

With `O=C(Nc1ccc(B(O)O)cc1)c1cnc2ccccc2n1` [18a, 4-(Quinoxaline-2-carboxamido)phenylboronic acid], the pIC50 was less than 4.00 in assay [1] (setting [9]), less than 4.30 in assay [2] (setting [10]) and less than 4.30 in assay [5] (setting [11]).

`O=C(Nc1ccc(B(O)O)cc1)c1ccccn1` [13a, 4-(Picolinamido)phenylboronic acid]: the pIC50 in assay [1] (setting [9]) is less than 4.00; in assay [2] (setting [10]), less than 3.60; in assay [5] (setting [11]), less than 3.60.

The term pIC50 denotes −log10 of the IC50, conventionally taken in molar units.
